Reference: patent publication US20020193377A1, “Quinazolines as MMP-13 inhibitors” (priority 2001, published 2002)
pIC50: −log10 of the molar value.

Target: T1, human collagenase-3 catalytic domain enzyme (MMP13) (Homo sapiens, UniProt P45452)
T1 construct: human collagenase-3 catalytic domain enzyme
Assay: MMP13CD Thiopeptolide Assay
Format: biochemical
Procedure: MMP13CD Thiopeptolide Assay: Proteolysis of the thiopeptolide substrate Ac-Pro-Leu-Gly-thioester-Leu-Leu-Gly-OEt is used as the primary screen to determine IC50 values for MMP13 inhibitors. A 100 μl reaction contains 50 mM HEPES, 10 mM CaCl2, pH 7.0 (RT), 1 mM 5,5′-dithiobis(2-nitrobenzoic acid) (DTNB), 100 μM substrate, inhibitor in 2.0% DMSO and 2.5 nM human collagenase-3 catalytic domain enzyme. Inhibitors are screened from 100 μM to 0.5 nM. […] Percentage of control velocity in inhibited treatments is plotted against inhibitor concentration to calculate IC50 values.

Row | SMILES | pIC50
1 | O=C(NCc1cccnc1)c1ccc2[nH]c(=O)n(Cc3ccccc3)c(=O)c2c1 [Example 5, 3-Benzyl-2,4-dioxo-1,2,3,-tetrahydroquinazoline-6-carboxylic acid (3-pyridylmethyl)amide] | 6.71
2 | COc1ccc(CNC(=O)c2ccc3[nH]c(=O)n(Cc4ccccc4)c(=O)c3c2)cc1 [Example 6, 3-Benzyl-2,4-dioxo-1,2,3,4-tetrahydroquinazoline-6-carboxylic acid 4-methoxybenzylamide] | 6.74
3 | O=C(NCc1ccc(Cl)cc1)c1ccc2[nH]c(=O)n(Cc3ccccc3)c(=O)c2c1 [Example 7, 3-Benzyl-2,4-dioxo-1,2,3,4-tetrahydroquinzaoline-6carboxylic acid 4-chlorobenzylamide] | 7.68
4 | Cc1ccc(CNC(=O)c2ccc3[nH]c(=O)n(Cc4ccccc4)c(=O)c3c2)cc1 [Example 8, 3-Benzyl-2,4-dioxo-1,2,3,4-tetrahydroquinazoline-6-carboxylic acid 4-methylbenzylamide] | 5.73
5 | Cn1c(=O)n(Cc2ccccc2)c(=O)c2cc(C(=O)NCc3ccc4c(c3)OCO4)ccc21 [Example 9, 3-Benzyl-1-methyl-2,4-dioxo-1,2,3,4-tetrahydroquinazoline-6-carboxylic acid (benzo[1,3]dioxol-5-ylmethyl)amide] | 6.44
6 | Cn1c(=O)n(Cc2ccccc2)c(=O)c2cc(C(=O)NCc3ccccc3)ccc21 [Example 10, 3-Benzyl-1-methyl-2,4-dioxo-1,2,3,4-tetrahydroquinazoline-6carboxylic acid benzylamide] | 7.31
7 | COC(=O)c1ccc(CNC(=O)c2ccc3c(c2)c(=O)n(Cc2ccccc2)c(=O)n3C)cc1 [Example 11, Methyl 4-({[1-(3-benzyl-1-methyl-2,4-dioxo-1,2,3,4-tetrahydroquinazolin-6-yl)methanoyl]amino}methyl)benzoate] | 6.78
8 | COc1cc(CNC(=O)c2ccc3c(c2)c(=O)n(Cc2ccccc2)c(=O)n3C)ccc1O [Example 12, 3-Benzy-1-methyl-2,4-dioxo-1,3,3,4-tetrahydroquinazoline-6-carboxylic acid 4-hydroxy-3-methoxybenzylamide] | 5.88
9 | COc1ccc(CNC(=O)c2ccc3c(c2)c(=O)n(Cc2ccccc2)c(=O)n3C)cc1 [Example 13, 3-Benzyl-1-methyl-2,4-dioxo-1,2,3,4-tetrahydroquinazoline-6-carboxylic acid 4-methoxybenzylamide] | 8.30
10 | Cn1c(=O)n(Cc2ccccc2)c(=O)c2cc(C(=O)NCc3ccncc3)ccc21 [Example 14, 3-Benzyl-1-methyl-2,4-dioxo-1,2,3,4-tetrahydroquinazoline-6-carboxylic acid (4-pyridylmethyl)amide] | 7.24
11 | Cn1c(=O)n(CCc2ccccc2)c(=O)c2cc(C(=O)NCc3ccc4c(c3)OCO4)ccc21 [Example 15, 1-Methyl-2,4-dioxo-3-phenethyl-1,2,3,4-tetrahydroquinazoline-6-carboxylic acid (benzo[1,3]dioxol-5-ylmethyl)amide] | 5.65
12 | COc1ccc(Cn2c(=O)[nH]c3ccc(C(=O)NCc4ccc5c(c4)OCO5)cc3c2=O)cc1 [Example 16, 3-(4-Methoxybenzyl)-2,4-dioxo-1,2,3,4-tetrahydroquinazoline-6-carboxylic acid (benzo[1,3]dioxol-5-ylmethyl)amide] | 7.38
13 | COc1ccc(Cn2c(=O)c3cc(C(=O)NCc4ccc5c(c4)OCO5)ccc3n(C)c2=O)cc1 [Example 17, 3-(4-Methoxybenzyl)-1-methyl-2,4-dixo-1 3,4-tetrahydroquinazoline-6-carboxylic acid (benzo[1,3]dioxo-5-ylmethyl)amide] | 7.92
14 | COc1ccc(CNC(=O)c2ccc3c(c2)c(=O)n(Cc2ccc(OC)cc2)c(=O)n3C)cc1 [Example 18, 3-(4-Methoxybenzyl)-1-methyl-2,4-dioxo-1,2,3,4-tetrahydroquinazoline-6-carboxylic acid 4-methoxybenzylamide] | 7.29
15 | O=C(NCc1ccc2c(c1)OCO2)c1ccc2[nH]c(=O)n(Cc3ccncc3)c(=O)c2c1 [Example 20, 2,4-Dioxo-3-(pyrid-4-ylmethyl)-1,2,3,4-tetrahydroquinazoline-6-carboxylic acid (benzo[1,3]dioxol-5ylmethyl)amide] | 7.82
16 | O=C(NCc1ccccc1)c1ccc2[nH]c(=O)n(Cc3cccs3)c(=O)c2c1 [Example 21, 2,4-Dioxo3-(thien-2-ylmethyl)-1,2,3,4-tetrahydroquinazoline-6-carboxylic acid benzylamide] | 8.05
17 | Cn1c(=O)n(Cc2cccs2)c(=O)c2cc(C(=O)NCc3ccc4c(c3)OCO4)ccc21 [Example 24, 1-Methyl-2,4-dioxo-3-(thien-2-ylmethyl)-1,2,4,4-tetrahydroquinazoline-6-carboxylic acid (benzo[1,3]dioxol-5-ylmethyl)amide] | 7.29
18 | O=C(NCc1ccc2c(c1)OCO2)c1ccc2[nH]c(=O)n(Cc3ccc(Cl)cc3)c(=O)c2c1 [Example 25, 3-(4-Chlorobenzyl)-2,4-dioxo-1,2,3,4-tetrahydroquinazoline-6-carboxylic acid (benzo[1,3]dioxol-5-ylmethyl)amide] | 6.52
19 | Cn1c(=O)n(Cc2ccc(Cl)cc2)c(=O)c2cc(C(=O)NCc3ccc4c(c3)OCO4)ccc21 [Example 26, 3-(4Chlorobenzyl)-1-methyl-2,4-dioxo-1,2,3,4-tetrahydroquinazoline-6-carboxylic acid (benzo[1,3]dioxol-5-ylmethyl)amide] | 7.02
20 | Cn1c(=O)c2cc(C(=O)NCc3ccc4c(c3)OCO4)ccc2n(C)c1=O [Example 27, 1,3-Dimethyl-2,4-dioxo-1,2,3,4-tetrahydroquinazoline-6-carboxylic acid (benzo[1,3]dioxol-5-ylmethyl)amide] | 7.54
21 | Cn1c(=O)n(Cc2ccc3c(c2)OCO3)c(=O)c2cc(C(=O)NCc3ccc4c(c3)OCO4)ccc21 [Example 29, 3-(Benzo[1,3]dioxol-5-ylmethyl)-1-methyl-2,4-dioxo-1,2,3,4-tetrahydroquinazoline-6carboxylic acid (benzo[1,3]dioxol-5-ylmethyl)amide] | 7.55
22 | CCn1c(=O)n(Cc2ccccc2)c(=O)c2cc(C(=O)NCc3ccc4c(c3)OCO4)ccc21 [Example 30, 3-Benzyl-1-ethyl-2,4-dioxo-1,2,3,4-tetraquinazoline-6-carboxylic acid (benzo[1,3]dioxol-5-ylmethyl)amide] | 8.05
23 | O=C(NCc1ccc2c(c1)OCO2)c1ccc2c(c1)c(=O)n(Cc1ccccc1)c(=O)n2CC1CC1 [Example 31, 3-Benzyl-1-cyclopropylmethyl-2,4-dioxo-1,2,3,4-tetrahydroquinazoline-6-carboxylic acid (benzo[1,3]dioxol-5-ylmethy)amide] | 5.77
24 | CC(C)Cn1c(=O)n(Cc2ccccc2)c(=O)c2cc(C(=O)NCc3ccc4c(c3)OCO4)ccc21 [Example 32, 3-Benzyl-1-isobutyl-2,4-dioxo-1,2,3,4-tetrahydroquinazoline-6-carboxylic acid (benzo[1,3]dioxol-5-ylmethyl)amide] | 7.77
25 | Cn1c(=O)[nH]c(=O)c2cc(C(=O)NCc3ccc4c(c3)OCO4)ccc21 [Example 33, 1-Methyl-2,4-dioxo-1,2,3,4-tetrahydrquinazoline-6-carboxylic acid (benzo[1,3]-dioxol-5-ylmethyl)amide] | 8.52
